According to US10449182B2 (The Regents of the University of California, priority 2012, dated 2019):

Columns and labels:
p21 [1] = assay: p21 levels by immunoblotting in ACHN and/or 786-O cells; assay type: cell-based, human; conditions: 24 h of culture with compound, immunoblot; also: key: + denotes inhibition of p21 secretion or the absence of p21; − denotes the presence of p21
Protocol: Cells harvested after growth to confluence in 10% serum-containing media and treatment with compounds of the invention were washed with phosphate buffered saline (PBS) and lysed in lysis buffer composed of 50 mM HEPES, 1% Triton X-100, 10 mM sodium pyrophosphate, 100 mM sodium fluoride and 4 mM EDTA at 4° C. Cell lysates were pelleted. Supernatants were electrophoresed and immunoblotted. Membranes were blocked in 5% nonfat dry milk for 30 min at room temperature and probed with p21 antibody. Membranes were then probed with horseradish peroxidase tagged anti-mouse or anti-rabbit IgG antibodies (diluted 3:20,000 and 3:10,000 in 5% nonfat dry milk, respectively) for 2 h at room temperature. Signal was detected using enhanced chemiluminescence (ECL) solutions.

Raf-1 = target: T1, Raf-1 (Homo sapiens, UniProt P04049); assay: Recombinant Raf kinase inhibition (ADP-Glo Kinase Assay), Raf-1; assay type: biochemical; conditions: 10 nM Raf kinase, 1 μM MEK-1, 10 μM ATP, 22° C., 1 hour
T1 construct: Full length recombinant Raf-I and b-Raf (V600E) kinases; purchased US Biological (Swampscott, Mass.)
Protocol: (§1) All assays were performed using 10 nM Raf kinase, 1 μM MEK-1, 10 μM ATP, at 22° C. for 1 hour. Inhibitors were dissolved in DMSO and IC50 values were obtained by measuring the change in the ADP production (luminescent signal intensity) at various inhibitor concentrations as compared to the control. Individual data sets were performed in duplicate and each IC50 value was determined from three separate experiments. The data were fit to a saturation curve using KaleidaGraph graphing program (Synergy Software) to determine the IC50 values.

human sEH = target: T2, human sEH (Homo sapiens, UniProt P34913); assay: Inhibitory activity against human sEH; assay type: biochemical; conditions: read-out: % Inhibition (IC50) Human sEH
T2 sequence (P34913 1-555): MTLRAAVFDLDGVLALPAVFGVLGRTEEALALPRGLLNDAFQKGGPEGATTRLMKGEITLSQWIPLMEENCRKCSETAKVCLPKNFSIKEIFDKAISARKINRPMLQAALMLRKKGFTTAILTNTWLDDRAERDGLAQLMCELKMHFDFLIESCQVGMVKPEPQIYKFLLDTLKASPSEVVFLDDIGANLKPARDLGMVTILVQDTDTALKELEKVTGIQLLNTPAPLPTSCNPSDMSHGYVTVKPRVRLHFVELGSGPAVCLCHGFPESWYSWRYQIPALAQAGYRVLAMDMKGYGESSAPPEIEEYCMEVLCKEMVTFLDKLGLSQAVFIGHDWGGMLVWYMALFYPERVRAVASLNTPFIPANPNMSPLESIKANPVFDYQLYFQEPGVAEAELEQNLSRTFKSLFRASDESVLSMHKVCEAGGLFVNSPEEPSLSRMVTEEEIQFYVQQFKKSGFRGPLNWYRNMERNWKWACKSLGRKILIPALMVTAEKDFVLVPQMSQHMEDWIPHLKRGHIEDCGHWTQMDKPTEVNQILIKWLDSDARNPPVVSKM

b-Raf (V600E) = target: T3, b-Raf (V600E) (Homo sapiens, UniProt P15056, V600E); assay: Recombinant Raf kinase inhibition (ADP-Glo Kinase Assay), b-Raf (V600E); assay type: biochemical; conditions: 10 nM Raf kinase, 1 μM MEK-1, 10 μM ATP, 22° C., 1 hour
T3 construct: Full length recombinant Raf-I and b-Raf (V600E) kinases; purchased US Biological (Swampscott, Mass.)
Protocol: as §1

NCI60 cell lines = assay: Cell viability TCA assay in NCI60 cell lines (FIG. 4); assay type: cell-based, human; conditions: 48 h
Protocol: FIGS. 4A, 4B & 4C. […] TCA assay was conducted in the NCI60 cell lines treated with Compound 2288 as described in the Materials and Methods. Compound 2288 inhibited various cancer cell growth.
TCA assay was conducted by NCI Developmental Therapeutics Program. Briefly, cells were plated in 96-well plates, and after appropriate treatments, the plates are incubated for an additional 48 h at 37° C., 5% CO2. 95% air, and 100% relative humidity. The assay was terminated by the addition of cold TCA. Cells were fixed by the addition of 50 μl of cold 50% (w/v) TCA (final concentration, 10% TCA) and incubated for 60 minutes at 4° C. The plates were washed water and air dried. Sulforhodamine B (SRB) solution (100 μl) at 0.4% (w/v) in 1% acetic acid was added to each well, and plates were incubated for 10 minutes at room temperature. After staining, the plates were washed with 1% acetic acid and air dried. Bound stain was subsequently solubilized with 10 mM trizma base, and the absorbance was read on an automated plate reader at a wavelength of 515 nm.

p21 [2] = assay: p21 protein stability with CHX, immunoblotting in 786-O cells (FIG. 3B); assay type: cell-based, human; conditions: 10 μM with CHX
Protocol: (§2) FIG. 3. […] 786-O cells were grown to confluence in 10% serum containing media and: (A) treated with Compound 2288 at 10 μM concentration or vehicle (DMSO) for the indicated time. mRNA was isolated and RT-PCR was performed as described in Materials and Methods. GAP DH is a loading control. (B) exposed to CHX (35 μM), Compound 2288 (10 μM). CHX (10 μg/ml) and Compound 2288 (10 μM), or vehicle (DMSO) for the indicated times and immunoblotting was performed with the antibodies indicated. β-actin is a loading control. The experiments shown are representative of at least 3 separate experiments.
(§3) Immunoblotting was performed as previously described.^19 Briefly, after appropriate treatments, the cells were washed with phosphate buffered saline (PBS) and lysed in lysis buffer. Cell lysates were immunoblotted. Membranes were blocked in 5% nonfat dry milk for one hour at room temperature and probed with appropriate antibodies. Membranes were then probed with horseradish peroxidase tagged anti-mouse or anti-rabbit IgG antibodies. Signal was detected using ECL solutions.

p21 [3] = assay: Immunofluorescence staining of p21 in 786-O cells (FIG. 5); assay type: cell-based, human; conditions: 10 μM, 24 h, confocal microscopy
Protocol: FIG. 5. […] 786-O cells were grown to confluence on 8-well chamber slides and treated with either Compound 2288 at 10 μM concentration or vehicle (DMSO) for 24 h. Immunofluorescence staining of p21 was visualized by confocal microscopy as described in Materials and Methods. p21 is green and the nuclear dye (DAPI) is blue. The experiment shown is representative of at least 3 separate experiments.
After appropriate treatments in 8 well chamber slides. immunofluorescence was conducted as described previously.^19 Briefly, the cells were fixed in 2% paraformaldehyde and blocked in the blocking buffer. After blocking, the cells were incubated with appropriate antibody, incubated with anti-mouse or anti-rabbit IgG (H+L), F(ab′)2 Fragment (Alexa Fluor® 488 Conjugate), and coverslipped with vectashield with DAPI. The specimens were examined by confocal microscopy.

p21 mRNA = assay: Reverse transcriptase-PCR of p21 mRNA in 786-O cells (FIG. 3A); assay type: cell-based, human; conditions: 10 μM, RT-PCR
Protocol: as §2
Total mRNA was collected and cDNA synthesized using a Qiagen RNeasykit (Valencia, Calif.) following manufacture's protocol. The PCR primers used are 5′-[…]-3′ (p21 sense), 5′-[…]-3′ (p21 antisense), 5′-[…]-3′ (GAPDH sense), and 5′-[…]-3′ (GAPDH antisense). Reverse-transcribed cDNA was subjected to 40 cycles. Thermal cycling conditions are as follows: denaturation for 30 seconds at 94° C. annealing for 30 seconds at 56.5° C. and elongation for 1 minute at 72° C. DNA was analyzed by 2% ethidium bromide agarose gel electrophoresis.

p21 [4] = assay: Immunoblotting of p21 and other proteins in normal kidney and cancer cells (FIG. 2); assay type: cell-based, human; conditions: HK2, 786-O, Caki-1, ACHN and Hey cells, 24 h, immunoblot
Protocol: FIG. 2. […] The cells were harvested and immunoblotted with the antibodies indicated. (A) p21 and (B) p-Akt, p-ERK, t-Akt, t-ERK and p53 proteins are shown. β-actin is a loading control for each membrane. The experiment shown is representative of at least 3 separate experiments.
as §3

p21 [5] = conditions: Inoue et al. (2011) Cancer Biol. Ther.; cited from earlier work

T3 sequence (P15056 whole entry V600E): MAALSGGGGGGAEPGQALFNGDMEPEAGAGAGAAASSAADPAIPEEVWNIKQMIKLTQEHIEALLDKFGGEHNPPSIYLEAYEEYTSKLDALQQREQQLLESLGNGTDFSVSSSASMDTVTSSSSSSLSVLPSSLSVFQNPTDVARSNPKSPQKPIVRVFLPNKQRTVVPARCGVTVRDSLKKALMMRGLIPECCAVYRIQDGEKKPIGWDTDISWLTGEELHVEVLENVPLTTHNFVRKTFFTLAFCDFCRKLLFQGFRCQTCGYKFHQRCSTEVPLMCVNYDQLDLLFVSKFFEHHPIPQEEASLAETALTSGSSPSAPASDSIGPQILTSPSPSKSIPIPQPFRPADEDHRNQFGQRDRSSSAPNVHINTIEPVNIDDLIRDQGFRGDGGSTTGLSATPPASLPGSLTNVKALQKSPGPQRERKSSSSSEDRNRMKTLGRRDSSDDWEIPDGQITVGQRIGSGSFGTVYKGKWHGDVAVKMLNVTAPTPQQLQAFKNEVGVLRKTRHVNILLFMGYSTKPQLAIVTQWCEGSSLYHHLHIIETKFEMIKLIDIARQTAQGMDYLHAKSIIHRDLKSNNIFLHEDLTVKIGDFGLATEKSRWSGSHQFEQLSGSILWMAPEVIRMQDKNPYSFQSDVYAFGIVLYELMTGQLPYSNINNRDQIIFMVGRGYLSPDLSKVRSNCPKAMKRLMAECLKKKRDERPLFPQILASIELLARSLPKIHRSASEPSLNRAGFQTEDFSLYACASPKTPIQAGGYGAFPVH

Compound | p21 inhibition (p21 [1]) | also measured
CCC(=O)N1CCC(NC(=O)NC23CC4CC(CC(C4)C2)C3)CC1 [Compound 1163] | − | 
O=C(NC12CC3CC(CC(C3)C1)C2)N[C@H]1CC[C@H](Oc2ccc(C(=O)O)cc2)CC1 [Compound 1471] | − | 
CS(=O)(=O)N1CCC(NC(=O)Nc2ccc(OC(F)(F)F)cc2)CC1 [Compound 1709] | − | 
O=C(Nc1ccc(OC(F)(F)F)cc1)N[C@H]1CC[C@H](Oc2ccc(C(=O)O)cc2)CC1 [Compound 1728] | − | 
CCC(=O)N1CCC(NC(=O)Nc2ccc(OC(F)(F)F)cc2)CC1 [Compound 1770] | − | 
N#Cc1ccc(O[C@H]2CC[C@H](NC(=O)Nc3ccc(Cl)c(C(F)(F)F)c3)CC2)cc1 [Compound 2182] | + | 
O=C(Nc1ccc(Cl)c(C(F)(F)F)c1)N[C@H]1CC[C@H](Oc2ccc(C(=O)O)cc2)CC1 [Compound 2221] | − | IC50 (Raf-1): 4300 ± 400 nM
CNC(=O)c1ccc(O[C@H]2CC[C@H](NC(=O)NC34CC5CC(CC(C5)C3)C4)CC2)cc1 [Compound 2225] | − | 
CNC(=O)c1ccc(O[C@H]2CC[C@H](NC(=O)Nc3ccc(OC(F)(F)F)cc3)CC2)cc1 [Compound 2227] | − | 
CNC(=O)c1ccc(O[C@H]2CC[C@H](NC(=O)Nc3ccc(Cl)c(C(F)(F)F)c3)CC2)cc1 [Compound 2253] | − | IC50 (Raf-1): 340 ± 40 nM; IC50 (human sEH): 0.5 nM; IC50 (b-Raf (V600E)): > 10000 nM
CNC(=O)c1cc(O[C@H]2CC[C@H](NC(=O)Nc3ccc(Cl)c(C(F)(F)F)c3)CC2)ccn1 [Compound 2278] | + | 
O=C(Nc1ccc(Cl)c(C(F)(F)F)c1)N[C@H]1CC[C@H](Oc2ccc(C(F)(F)F)cn2)CC1 [Compound 2288] | + | cancer cell growth (NCI60 cell lines): inhibits cancer cell growth; p21 protein stability (p21 [2]): no effect on p21 protein stability; IC50 (human sEH): 0.5 nM; cytosolic p21 (p21 [3]): decreases cytosolic p21; p21 mRNA expression (p21 mRNA): decreases p21 mRNA expression; levels of other proteins (p-Akt, p-ERK, t-Akt, t-ERK, p53) (p21 [4]): not levels of other proteins; p21 protein level (p21 [4]): consistently decreases p21 protein level
CNC(=O)c1ccc(OC2CCC(NC(=O)Nc3ccc(Cl)c(C(F)(F)F)c3)CC2)cn1 (stereo not shown) [Compound 2316] | + | IC50 (Raf-1): 175 ± 20 nM; IC50 (human sEH): 0.5 nM; IC50 (b-Raf (V600E)): 200 ± 150 nM
CNC(=O)c1cc(O[C@H]2CC[C@@H](NC(=O)Nc3ccc(Cl)c(C(F)(F)F)c3)CC2)ccn1 [Compound 2319] | + | IC50 (human sEH): 0.5 nM
CCN(CC)C(=O)c1cc(O[C@H]2CC[C@H](NC(=O)Nc3ccc(Cl)c(C(F)(F)F)c3)CC2)ccn1 [Compound 2574] | + | 
CNC(=O)c1cc(O[C@H]2CC[C@H](NC(=O)Nc3ccc(OC(F)(F)F)cc3)CC2)ccn1 [Compound 2575] | − | 
CNC(=O)c1cc(Oc2ccc(NC(=O)Nc3ccc(OC(F)(F)F)cc3)cc2)ccn1 [Compound 2576] | + | IC50 (Raf-1): 30 nM; IC50 (human sEH): 0.5 nM
CCN(CC)C(=O)c1cc(O[C@H]2CC[C@H](NC(=O)Nc3ccc(OC(F)(F)F)cc3)CC2)ccn1 [Compound 2577] | + | 
O=C(Nc1ccc(OC(F)(F)F)cc1)N[C@H]1CC[C@H](Oc2ccnc(C(=O)N3CCCC3)c2)CC1 [Compound 2578] | − | 
N#Cc1ccc(O[C@H]2CC[C@H](NC(=O)Nc3ccc(C(F)(F)F)cc3)CC2)cc1 [Compound 2579] | + | 
N#Cc1ccc(O[C@H]2CC[C@H](NC(=O)Nc3ccc(OC(F)(F)F)cc3)CC2)cc1 [Compound 2581] | + | 
CNC(=O)c1cc(Oc2ccc(NC(=O)Nc3ccc(Cl)c(C(F)(F)F)c3)cc2)ccn1 [Sorafenib, reference compound] | + | p21 inhibition (reported) (p21 [5]): potent and stable p21 inhibitor
